According to ChEMBL document CHEMBL5727000, “Carboxamide or sulfonamide substituted thiazoles and related derivatives as modulators for the orphan nuclear receptor ROR[γ]” (2019):
Where “and” joins values, the source holds several entries; their conditions need not be identical. Equal entries are not always repeated.

experiment: RORgamma Gal4 Reporter Gene Assay (REN): Cells were incubated for additional 16 h before renilla (REN) luciferase activities were measured sequentially in the same cell extract using a Dual-Light-Luciferase-Assay system (Dyer et al., Anal. Biochem. 2000, 282:158). All experiments were done at least in triplicates.

Point of comparison: CC(C)(C)NS(=O)(=O)c1ccc(-c2sc(C(=O)NC3CCS(=O)(=O)CC3)nc2-c2cccc(Cl)c2)c2ccccc12, IC50 6.31 nM. Against it:
- CC(C)(C)NS(=O)(=O)c1ccc(-c2sc(C(=O)NC3CSC3)nc2CC2CCCCC2)c2ccccc12 — 3.2-fold lower, 2 nM
- CC(C)(C)NS(=O)(=O)c1ccc(-c2nc(C(=O)NC3CCS(=O)(=O)CC3)sc2CC2CCCCC2)c2ccccc12 — 6.3-fold lower, 1 nM
- CC(C)(C)NS(=O)(=O)c1ccc(-c2sc(C(=O)NC34CCC(C(=O)O)(CC3)CC4)nc2CC2CCCCC2)c2ccccc12 — the same, 6.31 nM
- CC(C)(C)c1cc(-c2sc(C(=O)N[C@H]3C[C@H](C(=O)O)C3)nc2CC2CCCCC2)cc(C(C)(F)F)c1 — 6.3-fold higher, 39.8 nM
- CC1CCN(C(=O)c2nc(C(=O)N3CC4(CCS(=O)(=O)CC4)C3)sc2-c2ccc(S(=O)(=O)NC(C)(C)C)c3ccccc23)CC1 — 40-fold higher, 251 nM
- CC(C)(C)NS(=O)(=O)c1ccc(-c2sc(C(=O)NCC3(C(=O)O)CCOCC3)nc2CC2CCCCC2)c(Cl)c1Cl — 6.3-fold higher, 39.8 nM
- O=C(NC1CCS(=O)(=O)CC1)c1nc(CC2CCCCC2)c(-c2ccc(N3CCOCC3)c3ccccc23)s1 — 20-fold higher, 126 nM
- CC(C)(C)NS(=O)(=O)c1ccc(-c2sc(C(=O)NCCC(C)(C)C(=O)O)nc2CC2CCCCC2)c(Cl)c1Cl — the same, 6.31 nM
- CC(C)(C)NS(=O)(=O)c1ccc(-c2sc(C(=O)NCCC(C)(C)C(=O)O)nc2CC2CCCCC2)cc1C(F)(F)F — 6.3-fold higher, 39.8 nM
- CC(C)(C)NS(=O)(=O)c1ccc(-c2sc(C(=O)N[C@H]3C[C@H](C(=O)O)C3)nc2CC2CCCCC2)c(C(F)F)c1Cl — 2-fold lower, 3.16 nM
- CC(C)(C)NS(=O)(=O)c1ccc(-c2sc(C(=O)N[C@H]3C[C@H](C(=O)O)C3)nc2CC2CCCCC2)c2c1CCC2 — 2-fold lower, 3.16 nM
- CC(C)(CO)NS(=O)(=O)c1ccc(-c2sc(C(=O)N3CC4(CCS(=O)(=O)CC4)C3)nc2CC2CCCCC2)c2ccccc12 — 13-fold higher, 79.4 nM
- CC1CC(C)CN(C(=O)c2nc(C(=O)NCC(C)(C)O)sc2-c2ccc(S(=O)(=O)NC(C)(C)C)c3ccccc23)C1 (stereo not drawn) — 20-fold higher, 126 nM
- CC(C)(C)c1cc(-c2cc(C(N)=O)ccc2CC2CCCCC2)cc(C(C)(C)C)c1 — 79-fold higher, 501 nM
- CCC(C)(C)NS(=O)(=O)c1ccc(-c2sc(C(=O)NCc3ncc(S(C)(=O)=O)s3)nc2C(=O)N2CCC(C)CC2)c(Cl)c1C — 3.2-fold higher, 20 nM
- O=C(c1nc(CC2CCCCC2)c(-c2ccc(S(=O)(=O)NC3CS(=O)(=O)C3)c3ccccc23)s1)N1CC2(CCS(=O)(=O)CC2)C1 — 63-fold higher, 398 nM
- CC(C)(C)NS(=O)(=O)c1ccc(-c2sc(C(=O)NC3CCS(=O)(=O)CC3)nc2CC2CC2)c(Cl)c1Cl — 5-fold higher, 31.6 nM
- CC(C)(C)NS(=O)(=O)c1ccc(-c2sc(C(=O)N3CC(C(C)(C)C(=O)O)C3)nc2CC2CCCCC2)c(Cl)c1Cl — 20-fold higher, 126 nM
- CC(O)c1c(S(=O)(=O)NC(C)(C)C)ccc(-c2sc(C(=O)N3CC4(CCS(=O)(=O)CC4)C3)nc2CC2CCCCC2)c1Cl (stereo not drawn) — 32-fold higher, 200 nM
- CC(C)(C)NS(=O)(=O)c1ccc(-c2oc(C(=O)N[C@H]3C[C@H](C(=O)NS(C)(=O)=O)C3)nc2CC2CCCCC2)c2ccccc12 — 32-fold higher, 200 nM
- COC(c1nc(C(=O)NC2CCOCC2)sc1-c1cc(C(C)(C)C)cc(C2(C)CC2)c1)C1CCCCC1 (stereo not drawn) — 13-fold higher, 79.4 nM
- CC1CCN(C(=O)c2nc(C(=O)N3CC4(CCS(=O)(=O)CC4)C3)oc2-c2ccc(S(=O)(=O)NC(C)(C)C)c3ccccc23)CC1 — 400-fold higher, 2510 nM
- CC(C)(C)NS(=O)(=O)c1ccc(-c2sc(C(=O)NC3CCC(C(=O)O)C3)nc2CC2CCCCC2)c2ccccc12 (stereo not drawn) — 1.6-fold lower, 3.98 nM
- CC(C)(C)NS(=O)(=O)c1ccc(-c2sc(C(=O)NC3CCS(=O)(=O)CC3)nc2CC2CCC2)c2ccccc12 — 1.6-fold lower, 3.98 nM
- CC(C)(C)NS(=O)(=O)c1ccc(-c2sc(C(=O)NN3CCS(=O)(=O)CC3)nc2CC2CCCCC2)c(Cl)c1Cl — 3.2-fold lower, 2 nM
- CC(C)(O)c1cc(-c2sc(C(=O)N[C@H]3C[C@H](C(=O)O)C3)nc2CC2CCCCC2)cc(C2(C)CC2)c1 — 13-fold higher, 79.4 nM
- CC1CCN(C(=O)c2nc(C(=O)N3CC4(CCOCC4)C3)sc2-c2ccc(S(=O)(=O)NC(C)(C)C)c3ccccc23)CC1 — 10-fold higher, 63.1 nM
- CC(C)COc1cc(-c2sc(C(=O)N[C@H]3C[C@H](C(=O)O)C3)nc2CC2CCCCC2)cc(C(C)(C)C)n1 — 6.3-fold higher, 39.8 nM
- COC(c1nc(C(=O)N[C@H]2C[C@H](C(=O)O)C2)sc1-c1cc(C(C)(C)C)cc(C2(C)CC2)c1)C1CCCCC1 (stereo partly drawn) — 16-fold higher, 100 nM
- COC(c1nc(C(=O)NC2CCOCC2)sc1-c1ccc(S(=O)(=O)NC(C)(C)C)c(C(C)(C)C)c1)C1CCCCC1 (stereo not drawn) — 32-fold higher, 200 nM
- CC(C)(C)c1cc(-c2nc(C(N)=O)sc2CC2CCCCC2)cc(C(C)(C)C)c1 — 250-fold higher, 1580 nM
- Cc1c(C(=O)NC(C)(C)C)cc(-c2sc(C(=O)N[C@H]3C[C@H](C(=O)O)C3)nc2CC2CCCCC2)cc1C1(C)CC1 — 25-fold higher, 158 nM
- CC(C)(C)c1cc(-c2nc(C(=O)NC3CCS(=O)(=O)CC3)oc2CC2CCCCC2)cc(C2(C)CC2)c1 — 40-fold higher, 251 nM
- C[C@H](NS(=O)(=O)c1ccc(-c2sc(C(=O)NCC(C)(C)O)nc2CC2CCC2)c(C(F)(F)F)c1)C(F)(F)F — 3.2-fold higher, 20 nM
- CC(C)(C)NS(=O)(=O)c1ccc(-c2oc(C(=O)NC34CCC(C(=O)O)(CC3)CC4)nc2CC2CCCCC2)c2ccccc12 — 2-fold higher, 12.6 nM
- CC(C)(C)NS(=O)(=O)c1ccc(-c2sc(C(=O)N[C@H]3C[C@H](C(=O)O)C3)nc2C2CCCCC2)c2ccccc12 — 1.6-fold higher, 10 nM
- CNS(=O)(=O)c1ccc(-c2sc(C(=O)N3CC4(CCS(=O)(=O)CC4)C3)nc2CC2CCCCC2)c2ccccc12 — 40-fold higher, 251 nM
- CC1(c2cc(-c3sc(C(=O)N[C@H]4C[C@H](C(=O)O)C4)nc3CC3CCCCC3)cc(C(F)(F)F)c2)CC1 — 13-fold higher, 79.4 nM
- CC(C)(C)c1cc(-c2oc(C(N)=O)nc2CC2CCCCC2)cc(C(C)(C)C)c1 — 250-fold higher, 1580 nM
- CC(C)(CCNC(=O)c1nc(CC2CCCCC2)c(-c2cc(C(C)(C)C)cc(C3(C)CC3)c2)s1)C(=O)O — 16-fold higher, 100 nM
- CC(C)(O)CNC(=O)c1nc(CC2CCCCC2)c(-c2ncc(S(=O)(=O)NC(C)(C)C)c3ccccc23)s1 — 3.2-fold higher, 20 nM
- CC(C)(C)NS(=O)(=O)c1ccc(-c2sc(C(=O)NN3CCOCC3)nc2CC2CCCCC2)c(Cl)c1Cl — 3.2-fold lower, 2 nM
- CC1CCCCN1C(=O)c1nc(C(=O)NCC(C)(C)O)sc1-c1ccc(S(=O)(=O)NC(C)(C)C)c2ccccc12 (stereo not drawn) — 7.9-fold higher, 50.1 nM
- CC(C)(C)NS(=O)(=O)c1ccc(-c2sc(C(=O)N[C@H]3C[C@H](C(=O)O)C3)nc2CC2CCCCC2)cc1C(F)(F)F — 1.6-fold higher, 10 nM
- CC(C)(C)NS(=O)(=O)c1ccc(-c2sc(C(=O)NC3COC3)nc2CC2CCCCC2)c(Cl)c1Cl — 2-fold lower, 3.16 nM
- CC1CCN(C(=O)c2nc(C(=O)NCC(C)(C)O)sc2-c2ccc(S(=O)(=O)NCC(C)(C)O)c3ccccc23)CC1 — 250-fold higher, 1580 nM
- CC(C)(C)NS(=O)(=O)c1ccc(-c2sc(C(=O)NC3CCS(=O)(=O)CC3)nc2CC2CCCCC2)c2ccncc12 — 2-fold higher, 12.6 nM
- CC1CCN(C(=O)c2nc(C(=O)NCC(C)(C)O)sc2-c2ccc(S(=O)(=O)N[C@@H](C)C(F)(F)F)c3ccccc23)CC1 — 3.2-fold higher, 20 nM
- CC1(NC(=O)c2cc(-c3sc(C(=O)NC4CCS(=O)(=O)CC4)nc3CC3CCCCC3)cc(C3(C)CC3)c2)COC1 — 2-fold higher, 12.6 nM
- CC(C)(C)NS(=O)(=O)c1ccc(-c2sc(C(=O)NC3CC3)nc2CC2CCCCC2)c(Cl)c1Cl — 1.6-fold higher, 10 nM
- CC1CCN(C(=O)c2nc(C(=O)NCC(C)(C)O)sc2-c2ccc(S(=O)(=O)NCC(F)(F)F)c3ccccc23)CC1 — 6.3-fold higher, 39.8 nM

With CC(C)(C)NS(=O)(=O)c1ccc(-c2sc(C(=O)NC3C[S+]([O-])C3)nc2CC2CCCCC2)cc1C(C)(C)O (stereo not drawn) the IC50 was 10 nM and 50.1 nM.
